Measurements: patent EP3409787A1, “TWO SNPS (SINGLE NUCLEOTIDE POLYMORPHISMS) IN THE SEQUENCE OF THE BETA, BETA-CAROTENE 15,15 DIOXYGENASE GENE AND THEIR USE” (DSM IP Assets B.V., priority 2017, dated 2018)

Experiment: Supplementation study: Total Body Stores of vitamin A (TBS) by isotope dilution with [13C10] retinyl acetate
Format: in vivo, human subjects
Settings: 7 mg beta-carotene daily, 54 days, humans
From the text: The person skilled in art knows how to determine the Total Body Stores (TBS) of vitamin A, e.g. by determining the [^13C10] retinyl acetate dose after a sufficient period (circa 3 days) of isotope dilution with endogenous pools.
The study underlying the present invention analyzed inter alia the Total Body Store of vitamin A (TBS) using an isotope dilution method and [^13C10] retinol concentrations, and determined the effect of the rs7501331 or rs6564851 SNPs on BCO1 enzyme activity. To enable the analysis of SNPs on TBS, stepwise multiple regression was performed using the Akaike Information Criterion (AIC) to evaluate the covariates dietary intake of retinol, provitamin A carotenoids and retinol equivalents, age, BMI and body fat. The most significant covariant used for the selective model to analyze the SNP and TBS interaction was dietary retinol equivalent, with an AIC of 276.5. Thus, the final model tested the effects of the rs7501331 or rs6564851 SNPs on TBS at both baseline and after 54 days of supplementation accounting for dietary retinol equivalent as the only co-variant in the analysis.
The study was a randomized, single blind supplementation design combined with retrospective genotyping to test three beta-carotene formulations (7mg β-carotene/day) for a period of 8 weeks. […] On day 1 and 57 of each supplementation period, a fasting blood sample was taken before the oral administration of 2 mg of [^13C10] β-carotene and 0.4 mg of [^13C10] retinyl acetate as part of a test breakfast meal. Further blood samples were taken at 2, 4, 6, 8, 10 and 12 hours post-dose. For the first formulation (BetaTab 20%S) single fasting blood samples were also taken at day 2, 3, 4, 8, 10, 22, 36 and day 57 of the 8 week supplementation period followed by fasting blood samples at day 58, 59, 60, 64, 66, 78, 92 and 113 during the wash-out period. […] However, overall body retinol homeostasis was determined using supplement 1 (BetaTab 20% S).

CC1=C(/C=C/C(C)=C/C=C/C(C)=C/C=C/C=C(C)/C=C/C=C(C)/C=C/C2=C(C)CCCC2(C)C)C(C)(C)CCC1 [beta-carotene]
effect of rs7501331 (A379V) SNP / dominant T variant on TBS values after supplementation: can overcome | effect of the rs6564851 SNPs on TBS after supplementation: does not disappear | effect of rs7501331 (A379V) SNP / dominant T variant on TBS values after supplementation (listed as ß-carotene): disappeared
